Patent US20230322846A9, “NEUROACTIVE STEROIDS AND THEIR METHODS OF USE” (SAGE THERAPEUTICS, INC., priority 2018, published 2023)

What was measured:
[1] = target: human GABAA receptors composed of the α1β2γ2 subunits (Homo sapiens (Human), UniProt P14867+P18507+P47870); test: α1β2γ2 SyncroPatch automated patch clamp assay; format: cell-based; conditions: for EC50: HEK cells, potentiation of submaximal GABA current, clamped at −120 mV; for α1β2γ2 EMAX: peak current after GABA+compound divided by peak current after GABA alone
Protocol: (§1) The SyncroPatch 384PE (Nanion, Germany) automated patch clamp platform was used to obtain recordings from human embryonic kidney cells stably expressing human GABAA receptors composed of the α1β2γ2 and α4β3δ subunits. Cells were bathed in an extracellular solution containing: 140 mM NaCl, 4 mM KCl, 2 mM CaCl2), 1 mM MgCl2, 10 mM HEPES, 5 mM glucose and 0.1% DMSO. Solution was maintained at pH 7.4 with NaOH and 300 mOsm/L. Chips with multi-hole (4×) medium resistance (2-3M) are used for the recombinant cell line experiments. Once harvested, cells are stored in extracellular solution set to 10° C. in the cell hotel with a minimum shaking speed of 200 rpm before addition to the chip at the beginning of each experiment. Whole cell patch clamp recordings were made using an intracellular solution containing: 90 mM KCl, 50 mM KF, 1.5 mM MgCl2, 11.1 mM EGTA and 10 mM HEPES, 2 mM NaATP, maintained at pH 7.2 with KOH. Currents are leak corrected (using P/2 leak correction protocol) and sampled at 5 kHz. Cells were clamped at −120 mV. After establishing a stable baseline, a submaximal concentration of GABA (3-5 μM for cells expressing α1β2γ2 and 10 μM for cells expressing […]) was applied at a rate of 10 μl/second, immediately followed by application of GABA+compound (10 μl/second) at a single concentration of compound per cell. Compounds were tested at six concentrations (0.029, 0.12, 0.47, 1.88, 7.5, and 30 μM) in n=8-12 cells per concentration. Compound effect was determined by dividing peak current amplitude after GABA+compound by peak current amplitude after GABA alone. EC50 and Emax values were determined from average values for each concentration.

[2] = target: human GABAA receptors composed of the α4β3δ subunits (Homo sapiens (Human), UniProt O14764+P28472+P48169); test: α4β3δ SyncroPatch automated patch clamp assay; format: cell-based; conditions: for EC50: HEK cells, potentiation of submaximal GABA current, clamped at −120 mV; for α4β3δ EMAX: peak current after GABA+compound divided by peak current after GABA alone
Protocol: as §1

[3] = target: [35S]-TBPS binding, rat brain cortical membranes; test: Steroid inhibition of [35S]-TBPS binding; conditions: 3 nM [35S]-TBPS, in the presence of 5 mM GABA
In short: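 Rat cortical P2 membranes incubated 90 min at room temperature with 3 nM [35S]-TBPS, […] and test compound (0.5% DMSO final) in NaCl/Na–K phosphate pH 7.4; nonspecific binding with […]. Filter-bound radioactivity counted; IC50 and Imax from nonlinear fits, mean ± SEM.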

Sequence of human GABAA receptors composed of the α1β2γ2 subunits (P14867 28-456 limits assumed): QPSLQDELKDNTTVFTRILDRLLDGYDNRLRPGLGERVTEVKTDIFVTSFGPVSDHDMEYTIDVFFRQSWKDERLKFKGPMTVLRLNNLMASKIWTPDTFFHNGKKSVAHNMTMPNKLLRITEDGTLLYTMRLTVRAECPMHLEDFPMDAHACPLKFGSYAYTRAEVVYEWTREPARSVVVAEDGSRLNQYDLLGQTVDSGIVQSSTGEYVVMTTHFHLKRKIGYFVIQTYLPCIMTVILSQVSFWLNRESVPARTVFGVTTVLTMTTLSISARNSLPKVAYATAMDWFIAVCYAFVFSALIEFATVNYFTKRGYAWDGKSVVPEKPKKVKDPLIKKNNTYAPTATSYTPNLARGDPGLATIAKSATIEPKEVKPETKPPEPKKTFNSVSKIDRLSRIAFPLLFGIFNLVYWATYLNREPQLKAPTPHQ
Sequence of human GABAA receptors composed of the α1β2γ2 subunits (P47870 25-512 limits assumed): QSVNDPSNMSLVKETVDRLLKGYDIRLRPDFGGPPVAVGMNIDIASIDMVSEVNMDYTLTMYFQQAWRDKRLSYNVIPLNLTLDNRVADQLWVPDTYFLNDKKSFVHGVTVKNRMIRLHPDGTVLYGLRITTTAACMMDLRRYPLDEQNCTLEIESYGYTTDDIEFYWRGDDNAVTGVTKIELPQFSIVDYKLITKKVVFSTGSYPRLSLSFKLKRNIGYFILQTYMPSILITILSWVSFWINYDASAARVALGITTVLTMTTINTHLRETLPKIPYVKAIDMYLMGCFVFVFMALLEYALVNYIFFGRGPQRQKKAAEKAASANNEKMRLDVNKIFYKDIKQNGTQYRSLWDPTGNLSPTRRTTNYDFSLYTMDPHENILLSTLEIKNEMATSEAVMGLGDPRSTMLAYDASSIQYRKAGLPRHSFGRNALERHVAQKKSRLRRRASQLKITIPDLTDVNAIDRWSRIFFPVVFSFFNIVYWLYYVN
Sequence of human GABAA receptors composed of the α1β2γ2 subunits (P18507 40-475 limits assumed): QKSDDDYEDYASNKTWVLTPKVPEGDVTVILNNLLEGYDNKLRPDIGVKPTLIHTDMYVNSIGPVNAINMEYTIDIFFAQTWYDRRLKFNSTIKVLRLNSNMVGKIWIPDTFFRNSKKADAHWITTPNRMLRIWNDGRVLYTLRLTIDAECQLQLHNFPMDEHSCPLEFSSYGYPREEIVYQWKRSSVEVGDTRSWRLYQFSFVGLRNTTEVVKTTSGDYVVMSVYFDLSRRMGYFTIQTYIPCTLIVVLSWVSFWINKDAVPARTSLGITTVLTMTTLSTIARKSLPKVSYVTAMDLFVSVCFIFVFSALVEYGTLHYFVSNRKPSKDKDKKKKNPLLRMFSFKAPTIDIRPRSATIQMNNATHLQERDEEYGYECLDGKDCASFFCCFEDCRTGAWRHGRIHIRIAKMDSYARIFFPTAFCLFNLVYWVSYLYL
Sequence of human GABAA receptors composed of the α4β3δ subunits (P48169 36-554 limits assumed): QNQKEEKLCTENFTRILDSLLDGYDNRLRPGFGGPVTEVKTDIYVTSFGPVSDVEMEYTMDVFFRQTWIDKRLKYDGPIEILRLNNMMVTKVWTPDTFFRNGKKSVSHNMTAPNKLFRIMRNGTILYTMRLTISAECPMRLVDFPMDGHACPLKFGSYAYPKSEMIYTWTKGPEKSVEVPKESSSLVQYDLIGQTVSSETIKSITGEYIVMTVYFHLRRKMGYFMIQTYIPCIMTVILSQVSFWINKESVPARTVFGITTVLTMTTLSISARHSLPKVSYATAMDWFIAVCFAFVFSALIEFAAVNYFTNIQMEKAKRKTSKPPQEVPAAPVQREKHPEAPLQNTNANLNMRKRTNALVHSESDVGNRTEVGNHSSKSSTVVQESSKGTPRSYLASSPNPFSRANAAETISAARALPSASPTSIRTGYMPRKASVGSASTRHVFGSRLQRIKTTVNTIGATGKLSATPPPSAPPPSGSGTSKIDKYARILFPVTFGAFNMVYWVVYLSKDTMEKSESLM
Sequence of human GABAA receptors composed of the α4β3δ subunits (P28472 26-473 limits assumed): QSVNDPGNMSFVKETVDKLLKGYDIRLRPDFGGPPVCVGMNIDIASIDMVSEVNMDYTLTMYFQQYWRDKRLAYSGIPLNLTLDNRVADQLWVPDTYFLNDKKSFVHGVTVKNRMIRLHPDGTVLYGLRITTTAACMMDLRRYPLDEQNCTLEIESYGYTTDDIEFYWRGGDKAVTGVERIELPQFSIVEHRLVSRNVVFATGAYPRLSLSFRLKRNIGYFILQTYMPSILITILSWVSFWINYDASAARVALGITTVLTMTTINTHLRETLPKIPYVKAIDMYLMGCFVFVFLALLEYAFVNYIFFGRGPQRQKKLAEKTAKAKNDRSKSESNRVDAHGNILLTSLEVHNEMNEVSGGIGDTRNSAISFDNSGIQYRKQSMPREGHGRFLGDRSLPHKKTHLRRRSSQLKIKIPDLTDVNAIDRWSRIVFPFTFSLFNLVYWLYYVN
Sequence of human GABAA receptors composed of the α4β3δ subunits (O14764 17-452 limits assumed): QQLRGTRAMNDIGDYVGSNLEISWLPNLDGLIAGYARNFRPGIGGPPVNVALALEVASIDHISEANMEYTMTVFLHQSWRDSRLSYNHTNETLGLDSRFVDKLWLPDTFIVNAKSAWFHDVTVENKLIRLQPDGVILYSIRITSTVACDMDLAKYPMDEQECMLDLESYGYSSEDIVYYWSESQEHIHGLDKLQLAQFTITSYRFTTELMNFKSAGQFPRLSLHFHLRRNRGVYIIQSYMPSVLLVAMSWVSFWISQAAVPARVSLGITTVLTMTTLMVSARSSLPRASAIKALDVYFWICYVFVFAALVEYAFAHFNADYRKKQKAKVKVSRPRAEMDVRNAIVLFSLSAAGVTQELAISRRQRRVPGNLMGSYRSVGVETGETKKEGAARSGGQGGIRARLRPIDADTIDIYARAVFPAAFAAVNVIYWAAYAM

SMILES	EC50 [1] [nM]	α1β2γ2 EMAX [1]	EC50 [2] [nM]	α4β3δ EMAX [2]	IC50 [3] [nM]
CCOC[C@@]1(O)CC[C@H]2[C@H](CC[C@@H]3[C@@H]2CC[C@]2(C)[C@@H]([C@H](C)Cn4nccc4C#N)CC[C@@H]32)C1 [Example 286, 1-((S)-2-((3R,5R,8R,9R,10S,13S,14S,17R)-3-(ethoxymethyl)-3-hydroxy-13-methylhexadecahydro-1H-cyclopenta[a]phenanthren-17-yl)propyl)-1H-pyrazole-5-carbonitrile]	< 200	B (B indicates an Emax response 8 to <10)	200 to 1000	A (A indicates an Emax response <30)	< 100
CCOC[C@@]1(O)CC[C@H]2[C@H](CC[C@@H]3[C@@H]2CC[C@]2(C)[C@@H]([C@H](Cn4nnc(C)n4)C(F)(F)F)CC[C@@H]32)C1 [Example 358, (3R,5R,8R,9R,10S,13S,14S,17R)-3-(ethoxymethyl)-13-methyl-17-((R)-1,1,1-trifluoro-3-(5-methyl-2H-tetrazol-2-yl)propan-2-yl)hexadecahydro-1H-cyclopenta[a]phenanthren-3-ol]	≥ 1000	A (A indicates an Emax response <8)	≥ 1000	B (B indicates an Emax response 30 to <45)	100 to 1000
CCOC[C@@]1(O)CC[C@H]2[C@H](CC[C@@H]3[C@@H]2CC[C@]2(C)[C@@H]([C@H](C)Cn4cc(C#N)cn4)CC[C@@H]32)C1 [Example 270, 1-((S)-2-((3R,5R,8R,9R,10S,13S,14S,17R)-3-(ethoxymethyl)-3-hydroxy-13-methylhexadecahydro-1H-cyclopenta[a]phenanthren-17-yl)propyl)-1H-pyrazole-4-carbonitrile]	200 to 1000	C (C indicates an Emax response ≥10)	200 to 1000	C (C indicates an Emax response ≥45)	< 100
CCOC[C@@]1(O)CC[C@@]2(C)[C@H](CC[C@@H]3[C@@H]2CC[C@]2(C)[C@@H]([C@H](C)Cn4ccc(C#N)n4)CC[C@@H]32)C1 [Example 278, 1-((S)-2-((3R,5R,8R,9S,10S,13S,14S,17R)-3-(ethoxymethyl)-3-hydroxy-10,13-dimethylhexadecahydro-1H-cyclopenta[a]phenanthren-17-yl)propyl)-1H-pyrazole-3-carbonitrile]	< 200	A (A indicates an Emax response <8)	< 200	A (A indicates an Emax response <30)	< 100
CCOC[C@@]1(O)CC[C@H]2[C@H](CC[C@@H]3[C@@H]2CC[C@]2(C)[C@@H]([C@H](C)Cn4ccc(C#N)n4)CC[C@@H]32)C1 [Example 287, 1-((S)-2-((3R,5R,8R,9R,10S,13S,14S,17R)-3-(ethoxymethyl)-3-hydroxy-13-methylhexadecahydro-1H-cyclopenta[a]phenanthren-17-yl)propyl)-1H-pyrazole-3-carbonitrile]	200 to 1000	B (B indicates an Emax response 8 to <10)	200 to 1000	A (A indicates an Emax response <30)	< 100
CCC[C@@]1(O)CC[C@@]2(COC)[C@H](CC[C@H]3[C@@H]4CC[C@H]([C@H](C)Cn5nnc(C)n5)[C@@]4(C)CC[C@@H]32)C1 [Example 320, (3R,5R,8S,9S,10R,13S,14S,17R)-10-(methoxymethyl)-13-methyl-17-((S)-1-(5-methyl-2H-tetrazol-2-yl)propan-2-yl)-3-propylhexadecahydro-1H-cyclopenta[a]phenanthren-3-ol]	200 to 1000	B (B indicates an Emax response 8 to <10)	200 to 1000	C (C indicates an Emax response ≥45)	< 100
Cc1cnc(C[C@@H](C)[C@H]2CC[C@H]3[C@@H]4CC[C@@H]5C[C@](C)(O)CC[C@@H]5[C@H]4CC[C@]23C)nc1 [Example 438]	200 to 1000	A (A indicates an Emax response <8)	≥ 1000	B (B indicates an Emax response 30 to <45)	100 to 1000
C[C@@H](Cc1cncc(C#N)c1)[C@H]1CC[C@H]2[C@@H]3CC[C@@H]4C[C@](C)(O)CC[C@@H]4[C@H]3CC[C@]12C [Example 407, 5-((S)-2-((3R,5R,8R,9R,10S,13R,14S,17R)-3-hydroxy-3,13-dimethylhexadecahydro-1H-cyclopenta[a]phenanthren-17-yl)propyl)nicotinonitrile]	< 200	C (C indicates an Emax response ≥10)	≥ 1000	C (C indicates an Emax response ≥45)	< 100
CC[C@@]1(O)CC[C@H]2[C@H](CC[C@@H]3[C@@H]2CC[C@]2(C)[C@@H]([C@@H](C)Cn4ccc(C#N)n4)CC[C@@H]32)C1 [Example 272, 1-((R)-2-((3R,5R,8R,9R,10S,13S,14S,17R)-3-ethyl-3-hydroxy-13-methylhexadecahydro-1H-cyclopenta[a]phenanthren-17-yl)propyl)-1H-pyrazole-3-carbonitrile]	< 200	C (C indicates an Emax response ≥10)	< 200	A (A indicates an Emax response <30)	< 100
CCC[C@@]1(O)CC[C@H]2[C@H](CC[C@@H]3[C@@H]2CC[C@]2(C)[C@@H]([C@H](C)Cn4nnnc4C)CC[C@@H]32)C1 [Example 323, (3R,5R,8R,9R,10S,13S,14S,17R)-13-methyl-17-(1-(5-methyl-1H-tetrazol-1-yl)propan-2-yl)-3-propylhexadecahydro-1H-cyclopenta[a]phenanthren-3-ol]	< 200	C (C indicates an Emax response ≥10)	200 to 1000	B (B indicates an Emax response 30 to <45)	< 100
COC[C@@]1(O)CC[C@H]2[C@H](CC[C@@H]3[C@@H]2CC[C@]2(C)[C@@H]([C@@H](C)Nc4ccc(C#N)cn4)CC[C@@H]32)C1 [Example 41, 6-(((R)-1-((3R,5R,8R,9R,10S,13S,14S,17S)-3-hydroxy-3-(methoxymethyl)-13-methylhexadecahydro-1H-cyclopenta[a]phenanthren-17-yl)ethyl)amino)nicotinonitrile]	≥ 1000	A (A indicates an Emax response <8)	≥ 1000	B (B indicates an Emax response 30 to <45)	100 to 1000
CCOC[C@@]1(O)CC[C@@]2(C)[C@H](CC[C@@H]3[C@@H]2CC[C@]2(C)[C@@H]([C@@H](C)Cn4nccc4C#N)CC[C@@H]32)C1 [Example 280, 1-((R)-2-((3R,5R,8R,9S,10S,13S,14S,17R)-3-(ethoxymethyl)-3-hydroxy-10,13-dimethylhexadecahydro-1H-cyclopenta[a]phenanthren-17-yl)propyl)-1H-pyrazole-5-carbonitrile]	< 200	C (C indicates an Emax response ≥10)	< 200	B (B indicates an Emax response 30 to <45)	< 100
